pKi: −log10 of the molar value. Where two headings read alike, the source gives them in different places.
Target: T1, HIV protease (Human immunodeficiency virus type 1 group M subtype B, UniProt P04585)
T1 construct: A third viral enzyme known as protease then cleaves the polyproteins
Assay: Enzymatic Assay for Determining the Inhibition Constant (Ki) of Synthetic Compounds Targeting the HIV Protease (fluorometric FRET assay)
Format: biochemical
From the text: Enzymatic Assay for Determining the Inhibition Constant (Ki) of Synthetic Compounds Targeting the HIV Protease
This is a fluorometric assay based on the cleavage by protease of a substrate carrying a donor group (EDANS) and an acceptor group (DABCYL) on each side of the cleavage site, interacting together through fluorescence resonance energy transfer (FRET) as described by Matayoshi et al. (Science 247:[…], 1990).
After calculation of Vo and Vi, the inhibition constant (Ki) of the compound is determined using the equation of Henderson: [formula]
where Vo=the enzyme's initial velocity
Vi=the enzyme velocity in the presence of the inhibitory compound,
[I]=inhlibitor concentration, [S]=substrate concentration,
Km=Michaelis-Menten constant and Kiapp=apparent Ki
Graphs are traced and the Ki determined using GraphPad Prism software v. 3.0.

Structure (SMILES)	pKi	other results
Cc1ccc(S(=O)(=O)N(CC(C)C)[C@@H](CCCCNC(=O)[C@@H]2C[C@@H](O)CN2S(=O)(=O)c2ccccc2)C(=O)O)cc1 (relative stereo) [Example 17, Nα-Isobutyl-Nα-(4-methylbenzenesulfonyl)-Nε-[N′α-(benzenesulfonyl)-4-trans-hydroxy-L-prolyl]-L-lysine]	–	pKi (Anti-protease activity, read-out: Ki): 7.26
Cc1ccc(S(=O)(=O)N[C@@H](Cc2ccccc2)C(=O)NCCCC[C@@H](C(=O)O)N(CC(C)C)S(=O)(=O)c2ccc(C)cc2)cc1 [Example 1, Nα-Isobutyl-Nα-(4-methylbenzenesulfonyl)-Nε-[N′α-(4-methylbenzenesulfonyl)-L-phenylalanyl]-L-lysine]	8.96	–
Cc1ccc(S(=O)(=O)N[C@@H](Cc2c[nH]c3ccccc23)C(=O)NCCCC[C@@H](C(=O)O)N(CC(C)C)S(=O)(=O)c2ccc(C)cc2)cc1 [Example 2, Nα-Isobutyl-Nα-(4-methylbenzenesulfonyl)-Nε-[N′α-(4-methylbenzenesulfonyl)-L-tryptophanyl]-L-lysine]	9.29	–
CC(=O)Nc1ccc(S(=O)(=O)N[C@@H](Cc2ccccc2)C(=O)NCCCC[C@@H](C(=O)O)N(CC(C)C)S(=O)(=O)c2ccc(C)cc2)cc1 [Example 3, Nα-Isobutyl-Nα-(4-methylbenzenesulfonyl)-Nε-[N′α-(4-acetamidobenzenesulfonyl)-L-phenylalanyl]-L-lysine]	9.01	–
Cc1ccc(S(=O)(=O)N(CC(C)C)[C@@H](CCCCNC(=O)[C@H](Cc2c[nH]c3ccccc23)NS(=O)(=O)c2ccccc2)C(=O)O)cc1 [Example 4, Nα-Isobutyl-Nα-(4-methylbenzenesulfonyl)-Nε-(N′α-benzenesulfonyl-L-tryptophanyl)-L-lysine]	9.00	–
CC(C)CN([C@@H](CCCCNC(=O)[C@H](Cc1c[nH]c2ccccc12)NS(=O)(=O)c1ccc(N)cc1)C(=O)O)S(=O)(=O)c1ccc(N)cc1 [Example 5, Nα-Isobutyl-Nα-(4-aminobenzenesulfonyl)-Nε-[N′α-(4-aminobenzenesuifonyl)-L-tryptophanyl]-L-lysine]	9.34	–
Cc1ccc(S(=O)(=O)N(CC(C)C)[C@@H](CCCCNC(=O)[C@H](Cc2c[nH]c3ccccc23)NS(=O)(=O)c2ccc([N+](=O)[O-])cc2)C(=O)O)cc1 [Example 6, Nα-Isobutyl-Nα-(4-methylbenzenesulfonyl)-Nε-[N′α-(4-nitrobenzenesulfonyl)-L-tryptophanyl]-L-lysine]	8.14	–
Cc1ccc(S(=O)(=O)N[C@H](Cc2ccccc2)C(=O)NCCCC[C@@H](C(=O)O)N(CC(C)C)S(=O)(=O)c2ccc(C)cc2)cc1 [Example 7, Nα-Isobutyl-Nα-(4-methylbenzenesulfonyl)-Nε-[N′α-(4-methylbenzenesulfonyl)-D-phenylalanyl]-L-lysine]	6.92	–
Cc1ccc(S(=O)(=O)N(CC(C)C)[C@@H](CCCCNC(=O)[C@H](Cc2ccccc2)NS(=O)(=O)c2ccccc2)C(=O)O)cc1 [Example 8, Nα-Isobutyl-Nα-(4-methylbenzenesulfonyl)-Nε-(N′α-benzenesulfonyl-L-phenylalanyl)-L-lysine]	8.72	–
Cc1ccc(S(=O)(=O)N(CC(C)C)[C@@H](CCCCNC(=O)[C@H](Cc2ccccc2)NS(=O)(=O)c2ccc(Cl)cc2)C(=O)O)cc1 [Example 9, Nα-Isobutyl-Nα-(4-methylbenzenesulfonyl)-Nε-[N′α-(4-chlorobenzenesulfonyl)-L-phenylalanyl]-L-lysine]	8.17	–
Cc1ccc(S(=O)(=O)N(CC(C)C)[C@@H](CCCCNC(=O)[C@H](Cc2ccccc2)NS(=O)(=O)c2ccc([N+](=O)[O-])cc2)C(=O)O)cc1 [Example 10, Nα-Isobutyl-Nα-(4-methylbenzenesulfonyl)-Nε-[N′α-(4-nitrobenzenesulfonyl)-L-phenylalanyl]-L-lysine]	7.74	–
Cc1ccc(S(=O)(=O)N(CC(C)C)[C@@H](CCCCNC(=O)[C@H](Cc2c[nH]c3ccccc23)NS(=O)(=O)c2ccc(N)cc2)C(=O)O)cc1 [Example 12, Nα-Isobutyl-Nα-(4-methylbenzenesulfonyl)-Nε-[N′α-(4-aminobenzenesulfonyl)-L-tryptophanyl]-L-lysine]	–	pKi (Anti-protease activity of Ne-amino acid substituted L-lysine derivatives and analogs of formula I, read-out: Ki): 9.51
